Each structure is given as a SMILES string. pEC50: −log10 of the molar value. Where only a bound is given, the exact number is not on record here.

As usually defined, the pEC50 is the negative decadic logarithm of the EC50, by convention in mol/L.

The target in this test is T1, WT/R232 STING protein (Homo sapiens, UniProt Q86WV6, H232R).
T1 construct: host or cells: HEK293T
T1 sequence (Q86WV6 whole entry H232R): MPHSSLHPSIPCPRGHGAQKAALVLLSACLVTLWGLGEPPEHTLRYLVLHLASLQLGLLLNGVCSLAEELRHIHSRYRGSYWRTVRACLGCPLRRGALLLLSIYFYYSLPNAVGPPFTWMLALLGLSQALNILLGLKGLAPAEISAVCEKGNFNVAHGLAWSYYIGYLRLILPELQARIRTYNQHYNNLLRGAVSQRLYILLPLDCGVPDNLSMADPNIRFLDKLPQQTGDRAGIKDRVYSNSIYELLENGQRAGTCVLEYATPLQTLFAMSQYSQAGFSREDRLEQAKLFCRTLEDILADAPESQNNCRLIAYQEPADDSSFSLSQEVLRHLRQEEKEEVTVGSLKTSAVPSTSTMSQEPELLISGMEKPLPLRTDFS
Nature of the test: Luciferase reporter assay in HEK293T-hSTING-Luciferase cells, WT/R232. The class given is cell-based. The settings on record: 20 hr stimulation, read-out: R232 Activity (EC50 range). A digest of the protocol: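 Clonal HEK293T cells stably expressing human STING R232 plus an ISRE/ISG54-driven luciferase reporter, 5×10^5 per well, stimulated with compounds for 20 h. Secreted luciferase in supernatant measured by luminescence; […].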
For orientation: Reporter assays use an easily measured gene product as a stand-in for the process of interest.
As to `Cc1nc(CNC(=O)c2ccc3c(c2)N(Cc2ccccc2)C(=O)CS3)cs1` [Example 77, 4-benzyl-N-((2-methylthiazol-4-yl)methyl)-3-oxo-3,4-dihydro-2H-benzo[b-1,4]thiazine-6-carboxamide], the negative-log EC50 (pEC50) was less than 5.00.

As for `CC(C)(NC(=O)c1ccc2c(c1)N(Cc1ccccc1)C(=O)CS2)c1ccccc1F` [Example 78, 4-benzyl-N-(2-(2-fluorophenyl)propan-2-yl)-3-oxo-3,4-dihydro-2H-benzo[b-1,4]thiazine-6-carboxamide], the pEC50 was less than 5.00.

Turning to `O=C(NC(Cc1ccccc1)c1ccccc1)c1ccc2c(c1)N(Cc1ccccc1)C(=O)CS2` (stereo not shown) [Example 79, 4-benzyl-N-(1,2-diphenylethyl)-3-oxo-3,4-dihydro-2H-benzo[b-1,4]thiazine-6-carboxamide], the pEC50 is less than 5.00.

`O=C(NCCC1CCCCC1)c1ccc2c(c1)N(Cc1ccccc1)C(=O)CS2` [Example 81, 4-benzyl-N-(2-cyclohexylethyl)-3-oxo-3,4-dihydro-2H-benzo[b-1,4]thiazine-6-carboxamide]: the pEC50 was less than 5.00.

`Cc1noc(CN2C(=O)CSc3ccc(C(=O)NCc4ccco4)cc32)n1` [Example 84, N-(furan-2-ylmethyl)-4-((3-methyl-1,2,4-oxadiazol-5-yl)methyl)-3-oxo-3,4-dihydro-2H-benzo[b-1,4]thiazine-6-carboxamide]: the negative logarithm of the EC50 (pEC50) is less than 5.00.

For the compound `Cc1cc(CN2C(=O)CSc3ccc(C(=O)NCc4ccco4)cc32)no1` [Example 85, N-(furan-2-ylmethyl)-4-((5-methylisoxazol-3-yl)methyl)-3-oxo-3,4-dihydro-2H-benzo[b-1,4]thiazine-6-carboxamide], the negative logarithm of the EC50 (pEC50) is less than 5.00.

As to `NC(=O)c1cccc(CN2C(=O)CSc3ccc(C(=O)NCc4ccco4)cc32)c1` [Example 86, 4-(3-carbamoylbenzyl)-N-(furan-2-ylmethyl)-3-oxo-3,4-dihydro-2H-benzo[b-1,4]thiazine-6-carboxamide], the pEC50 was less than 5.00.

On to `O=C(NCc1ccco1)c1ccc2c(c1)N(Cc1cccc(OC(F)(F)F)c1)C(=O)CS2` [Example 88, N-(furan-2-ylmethyl)-3-oxo-4-(3-(trifluoromethoxy)benzyl)-3,4-dihydro-2H-benzo[b-1,4]thiazine-6-carboxamide], for which the negative logarithm of the EC50 (pEC50) is less than 5.00.

`O=C(NCc1ccco1)c1ccc2c(c1)N(CCc1ccccc1Cl)C(=O)CS2` [Example 89, 4-(2-chlorophenethyl)-N-(furan-2-ylmethyl)-3-oxo-3,4-dihydro-2H-benzo[b-1,4]thiazine-6-carboxamide]: the pEC50 is less than 5.00.

With `O=C(NCc1ccco1)c1ccc2c(c1)N(CCc1cccc(Cl)c1)C(=O)CS2` [Example 90, 4-(3-chlorophenethyl)-N-(furan-2-ylmethyl)-3-oxo-3,4-dihydro-2H-benzo[b-1,4]thiazine-6-carboxamide], the negative-log EC50 (pEC50) was less than 5.00.

For `O=C(NCc1ccco1)c1ccc2c(c1)N(Cc1ccccc1OC(F)(F)F)C(=O)CS2` [Example 91, N-(furan-2-ylmethyl)-3-oxo-4-(2-(trifluoromethoxy)benzyl)-3,4-dihydro-2H-benzo[b-1,4]thiazine-6-carboxamide], the pEC50 is less than 5.00.

With `O=C(NCc1ccco1)c1ccc2c(c1)N(CCc1cccc(C(F)(F)F)c1)C(=O)CS2` [Example 92, N-(furan-2-ylmethyl)-3-oxo-4-(3-(trifluoromethyl)phenethyl)-3,4-dihydro-2H-benzo[b-1,4]thiazine-6-carboxamide], the pEC50 is less than 5.00.

Consider `N#Cc1ccccc1CN1C(=O)CSc2ccc(C(=O)NCc3ccco3)cc21` [Example 94, 4-(2-cyanobenzyl)-N-(furan-2-ylmethyl)-3-oxo-3,4-dihydro-2H-benzo[b-1,4]thiazine-6-carboxamide], for which the pEC50 is less than 5.00.

In the case of `O=C(NCc1ccco1)c1ccc2c(c1)N(Cc1ccc(Cl)s1)C(=O)CS2` [Example 95, 4-((5-chlorothiophen-2-yl)methyl)-N-(furan-2-ylmethyl)-3-oxo-3,4-dihydro-2H-benzo[b-1,4]thiazine-6-carboxamide], the negative logarithm of the EC50 (pEC50) is less than 5.00.

With `Cc1nc(CN2C(=O)CSc3ccc(C(=O)NCc4ccco4)cc32)cs1` [Example 96, N-(furan-2-ylmethyl)-4-((2-methylthiazol-4-yl)methyl)-3-oxo-3,4-dihydro-2H-benzo[b-1,4]thiazine-6-carboxamide], the negative-log EC50 (pEC50) was less than 5.00.

Take `O=C(NCc1ccco1)c1ccc2c(c1)N(Cc1cccc(C(F)(F)F)c1)C(=O)CS2` [Example 97, N-(furan-2-ylmethyl)-3-oxo-4-(3-(trifluoromethyl)benzyl)-3,4-dihydro-2H-benzo[b-1,4]thiazine-6-carboxamide]: the negative-log EC50 (pEC50) is less than 5.00.

Regarding `CN1CCCC(CN2C(=O)CSc3ccc(C(=O)NCc4ccco4)cc32)C1` (stereo not shown) [Example 98, N-(furan-2-ylmethyl)-4-((1-methylpiperidin-3-yl)methyl)-3-oxo-3,4-dihydro-2H-benzo[b-1,4]thiazine-6-carboxamide], the pEC50 was less than 5.00.

Take `O=C(NCc1ccco1)c1ccc2c(c1)N(Cc1cc(F)ccc1Cl)C(=O)CS2` [Example 99, 4-(2-chloro-5-fluorobenzyl)-N-(furan-2-ylmethyl)-3-oxo-3,4-dihydro-2H-benzo[b-1,4]thiazine-6-carboxamide]: the pEC50 is 5.00 to 6.00.

In the case of `O=C(NCc1ccco1)c1ccc2c(c1)N(Cc1cc(F)ccc1F)C(=O)CS2` [Example 100, 4-(2,5-difluorobenzyl)-N-(furan-2-ylmethyl)-3-oxo-3,4-dihydro-2H-benzo[b-1,4]thiazine-6-carboxamide], the pEC50 was 5.00 to 6.00.

As for `O=C(NCc1ccco1)c1ccc2c(c1)N(Cc1c(F)cccc1F)C(=O)CS2` [Example 101, 4-(2,6-difluorobenzyl)-N-(furan-2-ylmethyl)-3-oxo-3,4-dihydro-2H-benzo[b-1,4]thiazine-6-carboxamide], the negative-log EC50 (pEC50) is 5.00 to 6.00.

Regarding `O=C(NCc1ccco1)c1ccc2c(c1)N(Cc1cc(Cl)cc(C(F)(F)F)c1)C(=O)CS2` [Example 102, 4-(3-chloro-5-(trifluoromethyl)benzyl)-N-(furan-2-ylmethyl)-3-oxo-3,4-dihydro-2H-benzo[b-1,4]thiazine-6-carboxamide], the pEC50 is 5.00 to 6.00.

On to `O=C(NCc1ccco1)c1ccc2c(c1)N(CCS(=O)(=O)c1ccccc1)C(=O)CS2` [Example 103, N-(furan-2-ylmethyl)-3-oxo-4-(2-(phenylsulfonyl)ethyl)-3,4-dihydro-2H-benzo[b-1,4]thiazine-6-carboxamide], for which the negative logarithm of the EC50 (pEC50) was less than 5.00.

For `O=C(NCc1ccco1)c1ccc2c(c1)N(Cc1cn3ccsc3n1)C(=O)CS2` [Example 104, N-(furan-2-ylmethyl)-4-(imidazo[2,1-b]thiazol-6-ylmethyl)-3-oxo-3,4-dihydro-2H-benzo[b-1,4]thiazine-6-carboxamide], the negative-log EC50 (pEC50) is less than 5.00.

For `Cc1nnc(CN2C(=O)CSc3ccc(C(=O)NCc4ccco4)cc32)n1C` [Example 105, 4-((4,5-dimethyl-4H-1,2,4-triazol-3-yl)methyl)-N-(furan-2-ylmethyl)-3-oxo-3,4-dihydro-2H-benzo[b-1,4]thiazine-6-carboxamide], the pEC50 is less than 5.00.

Turning to `O=C(NCc1ccco1)c1ccc2c(c1)N(Cc1ccccc1F)C(=O)CS2` [Example 106, 4-(2-fluorobenzyl)-N-(furan-2-ylmethyl)-3-oxo-3,4-dihydro-2H-benzo[b-1,4]thiazine-6-carboxamide], the pEC50 is less than 5.00.

Values taken from patent US20200138827A1, “SMALL MOLECULE MODULATORS OF HUMAN STING” (Curadev Pharma Limited, priority 2017, published 2020).
